Laboratory results from patent US20140263071A1, “METHOD FOR COLLECTING METALS” (CHEMEC OY AB, priority 2011, published 2014).
Marks after values point to notes of the source that are not given here.

How the values were obtained:
[1] = Separation of Cr(III) from Cr(VI) (Example 14); settings: pH 4.0, 1a 100 mg
Procedure: A water solution (110 ml) containing known amount of single cationic element or elements, typically 0.5-200 ppm, was prepared from Merch Titrisol® standard solution. After adjusting pH by using acid (e.g. HCl or HNO3) or base (e.g. NaOH) to desired initial value, sample A (10 ml) was taken followed by adding 100 mg of selected solid complexation agent. The mixture was stirred at room temperature for 24 h and sample B (10 ml) was taken. Samples A and B were filtrated separately trough 0.2 μm syringe filter and the concentration of the studied element or elements in both solution was determined by using atomic absorption spectrophotometer. The expulsion percent was determined from the concentration differences between the sample solutions A and B.
An aqueous solution (100 ml) containing 1.72 ppm of Cr(III) and 1.89 ppm of Cr(VI) was prepared from Merch Titrisol® standard solution and pH was adjusted to 4.0. Following the general procedure described earlier the mixture was treated with 1a (100 mg) and expulsion per for Cr(III) and Cr(VI) were calculated to be 97.0% and 0%, respectively.

[2] = Purification of ash water from toxic waste disposal plant, TS 3 (Example 18)
Procedure: An ash sample (200 g) obtained from toxic waste disposal plant was suspended to water (2.0 l) and stirred for 24 h and filtrated. Approximate metal concentrations (pH 3.62): 1-4 g/l of Ca^2+, K^+ and Na^+, 0.1-0.2 g/l of Al^3+, Mg^2+ and Zn^2+; ≦0.02 g/l of Cd^2+, Mn^2+, Pb^2+ and Sr^2+.
TS 3, TS 3 diluted to 1:10 (TS 3a), TS 3 diluted to 1:100 (TS 3b) and Cd^2+, Pb^2+ and Zn^2+ spiked samples TS 3a and TS 3b were each treated with 1a (1.0 g) with stirring for 24 h. These five samples were separately filtrated trough 0.2 μm syringe filter and metal concentrations in each solution were determined by ICP-AES method before and after treatment with 1a.

[3] = Separation of silver with complexation agent by HCl elution (Example 20); settings: for Concentration after 1a: mixture of Ag^+, 1a 10 g, 48 h; for End concentration in 1a: after HCl elutions; for Metals in 0.01M HCl: elution of loaded 1a with 0.01 M HCl (60 ml); for Metals in 0.1M HCl: elution of loaded 1a with 0.1 M HCl (60 ml); for Metals in 1M HCl: elution of loaded 1a with 1 M HCl (60 ml)
Procedure: A mixture of Cu(NO3)2×3H2O (20 ml, 0.1 M), AgNO3 (20 ml, 0.1 M), Fe(NO3)3 (20 ml, 0.1 M), water (40 ml) and 1a (10 g) were stirred for 48 h at room temperature. Solids were collected to sintered disc (porosity G-4), washed with water (60 ml) and eluted with 0.01 M (60 ml), 0.1 M (60 ml) and 1 M (60 ml) HCl solutions. Amounts of each metals in eluted HCl solutions were determined by AAS using standard procedures.

[4] = Simultaneous collection of Ni^2+, Zn^2+, Eu^3+, La^3+, Nd^3+, Y^3+, UO2^2+, Nb^5+ and Zr^4+ from TS 5 (Example 22); settings: TS 5, 1a 1 g/100 ml, 24 h
Procedure: A test solution containing 1-15 mg/l of Al^3+, Fe^2/3+, Mg^2+, Mn^2+, Ni^2+ and Zn^2+; 0.1-0.9 mg/l of Ca^2+ and Na^+; and trace amount of other Cr^3+, Co^2+, Cu^2+, Eu^3+, La^3+, Nd^3+, Y^3+, UO2^2+ and Nb^5+ cations were prepared.
TS 5 (100 ml) was stirred with 1a (1 g) at room temperature for 24 h. After filtration trough 0.2 μm syringe filter metal concentration of Ni^2+, Zn^2+, Eu^3+, La^3+, Nd^3+, Y^3+, UO2^2+, Nb^5+ and Zr^4+ were determined by using ICP-AES and ICP-MS methods. The expulsions percent was calculated for each element from the concentration difference between initial and final solutions and the experimental results are given in Table 16.

For `NCCCCCCCCCCC(O)(P(=O)(O)O)P(=O)(O)O` [Compound 1a, 11-Amino-1-hydroxyundecane-1,1-diyldiphosphonic acid], the “expulsion per cent for Cr(III)” value ([1]; 1.72 ppm Cr(III) with 1.89 ppm Cr(VI)) was 97.0%, the “expulsion per cent for Cr(VI)” value ([1]; 1.89 ppm Cr(VI) with 1.72 ppm Cr(III)) was 0% and the “Expulsion [%]” value ([2]; Spiked TS 3a, Al^3+) was ≥ 79.3^5) %. The “Expulsion [%]” value ([2]; Spiked TS 3a, Ca^2+) was 88.9%, the “Expulsion [%]” value ([2]; Spiked TS 3a, Cd^2+) was 75.6% and the “Expulsion [%]” value ([2]; Spiked TS 3a, K^+) was 1.8%. For the same molecule, the “Expulsion [%]” value ([2]; Spiked TS 3a, Na^+) was 3.5%, the “Expulsion [%]” value ([2]; Spiked TS 3a, Pb^2+) was ≥ 97.8^5) % and the “Expulsion [%]” value ([2]; Spiked TS 3a, Sr^2+) was 14.6%. The “Expulsion [%]” value ([2]; Spiked TS 3a, Zn^2+) was 93.6%, the “Expulsion [%]” value ([2]; Spiked TS 3b, Ca^2+) was 95.2% and the “Expulsion [%]” value ([2]; Spiked TS 3b, Cd^2+) was 96.2%. The “Expulsion [%]” value ([2]; Spiked TS 3b, K^+) was 0.8%, the “Expulsion [%]” value ([2]; Spiked TS 3b, Na^+) was 7.1% and the “Expulsion [%]” value ([2]; Spiked TS 3b, Pb^2+) was ≥ 98.1^5) %. For the same molecule, the “Expulsion [%]” value ([2]; Spiked TS 3b, Sr^2+) was 60.2%, the “Expulsion [%]” value ([2]; Spiked TS 3b, Zn^2+) was 91.3% and the “Expulsion [%]” value ([2]; TS 3, Al^3+) was 3.4^ %. The “Expulsion [%]” value ([2]; TS 3, Ca^2+) was 1.9%, the “Expulsion [%]” value ([2]; TS 3, Cd^2+) was 2.1% and the “Expulsion [%]” value ([2]; TS 3, K^+) was 2.9%. For the same molecule, the “Expulsion [%]” value ([2]; TS 3, Mg^2+) was 1.5%, the “Expulsion [%]” value ([2]; TS 3, Mn^2+) was 1.9% and the “Expulsion [%]” value ([2]; TS 3, Na^+) was 10.8%. For the same molecule, the “Expulsion [%]” value ([2]; TS 3, Pb^2+) was 65.7%, the “Expulsion [%]” value ([2]; TS 3, Sr^2+) was 2.1% and the “Expulsion [%]” value ([2]; TS 3, Zn^2+) was 3.6%. For the same molecule, the “Expulsion [%]” value ([2]; TS 3a (TS 3 diluted 1:10), Al^3+) was ≥ 71.8^5) %, the “Expulsion [%]” value ([2]; TS 3a (TS 3 diluted 1:10), Ca^2+) was 88.1% and the “Expulsion [%]” value ([2]; TS 3a (TS 3 diluted 1:10), K^+) was 0%. For the same molecule, the “Expulsion [%]” value ([2]; TS 3a (TS 3 diluted 1:10), Na^+) was 2.0%, the “Expulsion [%]” value ([2]; TS 3a (TS 3 diluted 1:10), Pb^2+) was ≥ 35.5^5) % and the “Expulsion [%]” value ([2]; TS 3a (TS 3 diluted 1:10), Sr^2+) was 12.5%. The “Expulsion [%]” value ([2]; TS 3a (TS 3 diluted 1:10), Zn^2+) was 0.0%, the “Expulsion [%]” value ([2]; TS 3b (TS 3 diluted 1:100), Ca^2+) was 93.1% and the “Expulsion [%]” value ([2]; TS 3b (TS 3 diluted 1:100), K^+) was 1.6%. The “Expulsion [%]” value ([2]; TS 3b (TS 3 diluted 1:100), Na^+) was 9.9%, the “Expulsion [%]” value ([2]; TS 3b (TS 3 diluted 1:100), Sr^2+) was 53.4% and the “Expulsion [%]” value ([2]; TS 3b (TS 3 diluted 1:100), Zn^2+) was ≥ 48.5^5) %. For the same molecule, the “Amounts of metals in 1a” value ([3]; Ag^+) was 1320 mg/L, the “Concentration after 1a” value ([3]; Ag^+, initial 2050 mg/l, Cu^2+, Fe^3+) was 730 mg/L and the “End concentration in 1a” value ([3]; Ag^+) was 1300 mg/L. For the same molecule, the “Metals in 0.01M HCl” value ([3]; Ag^+) was 10 mg/L, the “Metals in 0.1M HCl” value ([3]; Ag^+) was 0 mg/L and the “Metals in 1M HCl” value ([3]; Ag^+) was 10 mg/L. For the same molecule, the “Amounts of metals in 1a” value ([3]; Cu^2+) was 210 mg/L, the “Concentration after 1a” value ([3]; Cu^2+, initial 1310 mg/l, Cu^2+, Fe^3+) was 1100 mg/L and the “End concentration in 1a” value ([3]; Cu^2+) was 0 mg/L. For the same molecule, the “Metals in 0.01M HCl” value ([3]; Cu^2+) was 0 mg/L, the “Metals in 0.1M HCl” value ([3]; Cu^2+) was 10 mg/L and the “Metals in 1M HCl” value ([3]; Cu^2+) was 200 mg/L. For the same molecule, the “Amounts of metals in 1a” value ([3]; Fe^3+) was 80 mg/L, the “Concentration after 1a” value ([3]; Fe^3+, initial 1040 mg/l, Cu^2+, Fe^3+) was 960 mg/L and the “End concentration in 1a” value ([3]; Fe^3+) was 0 mg/L. For the same molecule, the “Metals in 0.01M HCl” value ([3]; Fe^3+) was 10 mg/L, the “Metals in 0.1M HCl” value ([3]; Fe^3+) was 10 mg/L and the “Metals in 1M HCl” value ([3]; Fe^3+) was 60 mg/L. The “Expulsion [%]” value ([4]; Eu^3+) was 98%, the “Expulsion [%]” value ([4]; La^3+) was 100% and the “Expulsion [%]” value ([4]; Nb^5+) was 100%. For the same molecule, the “Expulsion [%]” value ([4]; Nd^3+) was 100%, the “Expulsion [%]” value ([4]; Ni^2+) was 72% and the “Expulsion [%]” value ([4]; UO2^2+) was 100%. The “Expulsion [%]” value ([4]; Y^3+) was 100%, the “Expulsion [%]” value ([4]; Zn^2+) was 97% and the “Expulsion [%]” value ([4]; Zr^4+) was 100%.
